Measured values as given in patent US8409560B2, “Solid dispersion formulations and methods of use thereof” (Zalicus Pharmaceuticals Ltd., priority 2011, dated 2013).
Converted amounts (≈) assume the structure as drawn. “And” between values parts separate entries of the source, which are not always exact repeats. Equal entries are not always repeated. Where two headings read alike, the source gives them in different places.

Tests used:
[1] = Phase I (Group 2) study of HME or SDD formulations in healthy human subjects, fed (standard meal); type: in vivo; settings: 225 mg HME or SDD oral; for half-life: human, plasma, po, 225 mg
Experimental: Bioavailability of the ion channel modulator compound 1 was studied in healthy human subjects using SDD and HME formulations, with subjects in a fed state. The effect the SDD or HME formulation on bioavailability following a single oral dose under fed conditions was thereby evaluated and compared. Safety and tolerability of compound 1 was also evaluated.
This study utilized a single-center, single-dose open-label, 2-group, 2-period randomized crossover design to determine bioavailability following treatment with the SDD or HME formulation under fed conditions. A total of 16 subjects were selected by the criteria described in Example 10.
Subjects were treated with an oral dose of 225 mg HME (as described in Example 8, Table 14) or 225 mg SDD (as described in Example 7) with approximately 8 fluid ounces of water in the fed (standard meal) state. Subjects were randomized between HME and SDD formulations in equal numbers during period 1 of the trial, and, following a washout period, assigned to the opposite formulation during period 2. The fed condition is defined as the state of a subject following an overnight fast of at least 10 hours with a test meal provided 30 minutes prior to administration of the study drug. The subject must completely consume their respective meal before being dosed. Meals were standardized and standard meals were served according to a pre-determined schedule throughout the inpatient portion of the study. A standardized meal derived approximately 35% of total caloric content of the meal from fat, approximately 15-20% from protein, and approximately 45-50% from carbohydrates, with a total caloric content of approximately 400-450 calories. An example test meal would have included ⅝ ounces Cheerios®, 1 egg, 1 strip of bacon, 1 slice of toast with margarine, 6 ounces of low fat milk, and 4 ounces of orange juice. The time of food intake before and after study drug administration was documented. Water was allowed as desired except for one hour before and after drug administration. Outside of these restrictions, subjects in both fed and fasted conditions were provided fluid intake according to the subject's individual needs, with documentation. HME and SDD groups were dosed and evaluated simultaneously.
Treatments of 225 mg HME or SDD were administered on day 1 of period 1 of the trial and subjects were admitted to the clinical research unit (CRU) for four days of inpatient evaluation. Subjects were discharged from the CRU upon completion of assessments on day 4, and reported to the CRU for additional pharmacokinetic blood sampling and safety assessment on days 5 and 6, completing period 1. There was a 7-day washout between the first and second period drug administrations. In the second period, subjects were treated with an oral dose of 225 mg HME or 225 mg SDD in the fed (standard meal) state. The treatment was administered on day 1 of period 2 of the trial and subjects were admitted to the clinical research unit (CRU). Subjects were discharged from the CRU upon completion of assessments on day 4, and reported to the CRU for additional and followup pharmacokinetic blood sampling and safety assessment on days 5, 6, 8, 15, 22, 29, and 36 of period 2.
Pharmacokinetic assessments conducted during each treatment period were performed by the collection of venous blood samples via indwelling catheter or direct venipuncture. The plasma concentrations of the drug was determined for each sample. Concentration of the drug was determined using a validated liquid chromatography coupled with tandem mass (LC/MS/MS) assay, with a lower limit of quantitation (LLOQ) of 0.1 ng/mL. Descriptive statistics were calculated for these parameters and tabulated by formulation and period. Safety of the trial subjects was assessed by the following endpoints: adverse events, vital signs, ECG parameters, laboratory parameters, medical history, and physical examination. […]

[2] = Solubility of compound 1 (previously determined); type: physicochemical
Description: Compound 1 has the following previously determined characteristics: […]

[3] = Adverse effects at doses of up to 1,600 mg; type: in vivo
Description: Yet, compound 1 is also known to have decreased oral bioavailability in the fasted state, as compared to the fed state. Accordingly, the invention provides formulations to increase the oral bioavailability or to reduce patient-to-patient variability in pharmacokinetic behavior of compound 1, compound 2, or a salt thereof. Generally, amorphous forms of a drug are more readily absorbed within the gastric and intestinal system and, thus, have increased bioavailability, as compared to crystalline forms of the drug. These formulations include use of a solid dispersion system to provide a matrix polymer capable of maintaining therapeutically effective amounts of compound 1, compound 2, or a salt thereof, in an amorphous form.

[4] = Supersaturation dissolution kinetics of hot melt extrusion formulations; type: physicochemical; settings: processing conditions na
Experimental: Supersaturation dissolution kinetics provides valuable information regarding the performance of different matrix polymers in combination with an active agent. In particular, such studies could provide insight on which formulations could provide enhanced bioavailability. Accordingly, dissolution studies were conducted on the following three HME formulations: Kollidon® VA 64 (Copovidone), HPMCAS-MF (Hypromellose Acetate Succinate), and Kollidon® K30 (Povidone, PVP).
Briefly, the target concentration of the dissolution sample solution was 1.1 mg/mL, or ten times the estimated sink dissolution sample solution concentration produced by a 100 mg dose when dissolved in 900 mL of dissolution media. Triplicate preparations of about 10 mg of extrudate (2 mg of compound 1 in the three HME formulations) were transferred into separate micro-centrifuge tubes. About 1.8 mL of dissolution media was preheated to 37° C. and added to each tube, where the tube was then placed into an incubator shaker at 37° C. and 250 rpm. Samples were centrifuged at 13,000 rpm for one minute, and 25 μL aliquots of the clear supernatant were transferred into HPLC vials and diluted with 1.0 mL of HPLC mobile phase (30%/70% of pH 6.6 buffer/acetonitrile) at 10′ (minutes), 20′, 40′, 1 hr (hour), 1.5 hrs, 2 hrs, 4 hrs, and 24 hrs. An isocratic HPLC method was applied for quantitation against a five point calibration curve in the range of 5.5-220 μg/mL (C18, 5 μm, 4.6×150 mm column, and UV 216 nm detection). The HPLC sample solution target concentration was 27.1 μg/mL.

Half-Life Ratio ([1]; ratio period 1 to period 2, Mean): 73%
half-life ([1]; period 1, Mean, read-out: Half-Life Period 1 (converted)): 139 h
half-life ([1]; period 2, Mean, read-out: Half-Life Period 2 (converted)): 166 h
solubility in propylene glycol, ethanol, and tetrahydrofuran (in words) [2]: soluble
solubility ([2]; acetone, organic solvent or mixture, read-out: solubility in acetone): ≤ 50000 µg/mL
solubility ([2]; pH 6.5, pH of 6.5 in FaSSIF, read-out: solubility): 1.5 µg/mL (≈ 3.26 µM)
solubility in water (in words) ([2]; water): slightly soluble
solubility ([2]; water, pH 1, simulated gastric fluid, pH of 1.0, read-out: solubility in water): 55 µg/mL (≈ 119 µM)
solubility ([2]; water, pH 6.5, aqueous buffer, pH of 6.5, read-out: solubility in water): 0.03 µg/mL (≈ 0.0651 µM)
solubility ([2]; water, pH 6.8, aqueous buffer, pH of 6.8, read-out: solubility in water): 0.2 to 2 µg/mL (≈ 0.434 to 4.34 µM)
AUC0-4 hr (dissolution) [4]: 8000 ng·h/mL
Tmax (dissolution) [4]: 2 h
Cmax (dissolution) ([4]; 37° C.): 2645 ng/mL
SMILES: O=C(CC(c1ccccc1)c1ccccc1)N1CCN(C(c2ccccc2)c2ccccc2)CC1 [Compound 1, 1-(4-benzhydrylpiperazin-1-yl)-3,3-diphenylpropan-1-one]
Half-Life Period 1 ([1]; period 1, individual subjects): 617 h and 79 h and 75 h and 270 h and 73 h and 115 h and 112 h and 92 h and 94 h and 163 h and 96 h and 114 h and 72 h and 105 h and 77 h
Half-Life Period 2 ([1]; period 2, individual subjects): 104 h and 171 h and 176 h and 417 h and 82 h and 106 h and 149 h and 155 h and 137 h and 400 h and 193 h and 98 h and 71 h and 116 h and 114 h
Half-Life Ratio ([1]; ratio period 1 to period 2, individual subjects): 76% and 44% and 43% and 65% and 89% and 108% and 75% and 59% and 69% and 41% and 50% and 116% and 101% and 91% and 68%
adverse effects [3]: no adverse effects
